Data on 2 molecules can be found in ChEMBL document CHEMBL1250451, “Mechanistic insights into a Ca2+-dependent family of alpha-mannosidases in a human gut symbiont” (Nat Chem Biol, 2010).

Holding throughout (assay type): protein assay
Test [1] addresses T1, Alpha-1,2-mannosidase (BT_2199) (Bacteroides thetaiotaomicron) (UniProt Q8A5N9).
T1 sequence (whole entry): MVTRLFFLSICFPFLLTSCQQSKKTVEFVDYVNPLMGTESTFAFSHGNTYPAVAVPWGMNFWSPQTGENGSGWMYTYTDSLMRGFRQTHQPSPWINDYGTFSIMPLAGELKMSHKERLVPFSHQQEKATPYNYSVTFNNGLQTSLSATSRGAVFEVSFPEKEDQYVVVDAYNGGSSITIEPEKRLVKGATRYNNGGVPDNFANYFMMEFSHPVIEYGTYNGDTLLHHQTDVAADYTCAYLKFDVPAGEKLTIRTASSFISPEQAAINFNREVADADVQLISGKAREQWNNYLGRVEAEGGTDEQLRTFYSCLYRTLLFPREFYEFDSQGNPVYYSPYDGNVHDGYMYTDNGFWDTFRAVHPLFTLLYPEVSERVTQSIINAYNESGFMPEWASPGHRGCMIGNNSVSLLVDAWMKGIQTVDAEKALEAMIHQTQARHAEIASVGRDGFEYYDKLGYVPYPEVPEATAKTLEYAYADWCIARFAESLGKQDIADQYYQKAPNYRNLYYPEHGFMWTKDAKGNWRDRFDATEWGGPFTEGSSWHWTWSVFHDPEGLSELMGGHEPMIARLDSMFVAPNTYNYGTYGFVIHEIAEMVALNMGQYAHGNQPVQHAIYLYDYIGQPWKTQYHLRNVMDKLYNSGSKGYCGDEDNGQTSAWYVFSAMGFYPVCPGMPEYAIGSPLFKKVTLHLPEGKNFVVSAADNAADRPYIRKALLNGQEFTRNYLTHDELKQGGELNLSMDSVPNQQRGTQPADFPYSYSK
The test can be described thus: Activity of Bacteroides thetaiotaomicron GH92 alpha-mannosidase 2199 assessed as recovery of enzyme activity at 1 mM relative to enzyme activity in presence of calcium.

Test [2] addresses T1, Alpha-1,2-mannosidase (BT_2199) (Bacteroides thetaiotaomicron). The test can be described thus: Activity of Bacteroides thetaiotaomicron GH92 alpha-mannosidase 2199 assessed as recovery of enzyme activity at 1 mM in presence of 7 mM Ca(2+) ions and in presence of 5 mM EDTA in 100 mM pH 7 MOPS buffer relative to enzyme activity in presence of calcium.
For test [3] the target is unchanged. The test can be described thus: Activity of Bacteroides thetaiotaomicron GH92 alpha-mannosidase 2199 assessed as recovery of enzyme activity at 1 mM in presence of 7 mM Co(2+) ions and in presence of 5 mM EDTA in 100 mM pH 7 MOPS buffer relative to enzyme activity in presence of calcium.
Test [4] has the same target. The test can be described thus: Activity of Bacteroides thetaiotaomicron GH92 alpha-mannosidase 2199 assessed as recovery of enzyme activity at 1 mM in presence of 7 mM Ba(2+) ions and in presence of 5 mM EDTA in 100 mM pH 7 MOPS buffer relative to enzyme activity in presence of calcium.
The target is the same in test [5]. The test can be described thus: Activity of Bacteroides thetaiotaomicron GH92 alpha-mannosidase 2199 assessed as recovery of enzyme activity at 1 mM in presence of 7 mM Co(2+) ions and in presence of 5 mM EGTA in 100 mM pH 7 MOPS buffer relative to enzyme activity in presence of calcium.
The target of test [6] is T2, Alpha-1,2-mannosidase (BT_3990) (Bacteroides thetaiotaomicron) (UniProt Q8A0N1).
T2 sequence (whole entry): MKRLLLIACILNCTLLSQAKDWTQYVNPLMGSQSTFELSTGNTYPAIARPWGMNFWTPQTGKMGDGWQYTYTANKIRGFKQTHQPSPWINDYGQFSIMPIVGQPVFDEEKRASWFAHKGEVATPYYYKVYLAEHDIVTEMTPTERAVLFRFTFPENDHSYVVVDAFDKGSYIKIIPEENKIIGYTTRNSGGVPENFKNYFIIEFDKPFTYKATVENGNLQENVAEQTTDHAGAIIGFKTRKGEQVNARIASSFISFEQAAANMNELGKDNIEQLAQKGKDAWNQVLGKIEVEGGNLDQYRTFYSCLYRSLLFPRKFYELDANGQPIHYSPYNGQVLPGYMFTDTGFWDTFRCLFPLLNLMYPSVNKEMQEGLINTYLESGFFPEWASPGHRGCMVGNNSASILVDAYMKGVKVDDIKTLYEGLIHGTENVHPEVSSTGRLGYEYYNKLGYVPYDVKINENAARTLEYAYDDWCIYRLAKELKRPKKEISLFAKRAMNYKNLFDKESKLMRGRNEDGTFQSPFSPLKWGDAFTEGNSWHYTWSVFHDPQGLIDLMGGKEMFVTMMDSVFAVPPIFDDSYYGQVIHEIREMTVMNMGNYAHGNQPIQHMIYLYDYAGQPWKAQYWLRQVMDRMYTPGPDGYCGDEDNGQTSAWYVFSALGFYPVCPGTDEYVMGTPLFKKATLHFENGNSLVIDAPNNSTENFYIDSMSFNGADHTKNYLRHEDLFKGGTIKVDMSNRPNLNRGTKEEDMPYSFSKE
The test can be described thus: Activity of Bacteroides thetaiotaomicron GH92 alpha-mannosidase 3990 assessed as recovery of enzyme activity at 1 mM in presence of 7 mM Be(2+) ions and in presence of 5 mM EDTA in 100 mM pH 7 MOPS buffer relative to enzyme activity in presence of calcium.

In test [7] the target is T2, Alpha-1,2-mannosidase (BT_3990) (Bacteroides thetaiotaomicron). The test can be described thus: Activity of Bacteroides thetaiotaomicron GH92 alpha-mannosidase 3990 assessed as recovery of enzyme activity at 1 mM in presence of 7 mM Co(2+) ions and in presence of 5 mM EGTA in 100 mM pH 7 MOPS buffer relative to enzyme activity in presence of calcium.
The target is the same in test [8]. Kind of test: Activity of Bacteroides thetaiotaomicron GH92 alpha-mannosidase 3990 assessed as recovery of enzyme activity at 1 mM in presence of 7 mM V(3+) ions and in presence of 5 mM EGTA in 100 mM pH 7 MOPS buffer relative to enzyme activity in presence of calcium.

Regarding `OC[C@H]1O[C@H](OC[C@H]2O[C@H](O)[C@@H](O)[C@@H](O)[C@@H]2O)[C@@H](O)[C@@H](O)[C@@H]1O`, the Activity in test [1] is 63%.

Regarding `O=[N+]([O-])c1ccc(O[C@H]2O[C@H](CO)[C@@H](O)[C@H](O)[C@@H]2O)cc1`, the Activity came out at 100% in test [2]; 7% in test [3]; 0% in test [4]; 12% in test [5]; 0% in test [6]; 11% in test [7]. Also, the Activity in test [8] came out at 0%.
